Reference: patent US20230015647A1, “INHIBITORS OF HISTONE DEMETHYLASES (PFI-63 AND PFI-90) FOR THE TREATMENT OF CANCER AND FOR THE INHIBITION OF HISTONE DEMETHYLASE IN CELLS” (The United States of America,as represented by the …, priority 2019, published 2023)
“Also recorded” adds a separate entry of the source.

Experiments:
[1] = test system: truncated KDM3B catalytic domain; experiment: CPMG relaxation editing NMR binding assay; details: 100 μM
Excerpt: (§1) A WaterLOGSY assay and a Carr-Purcell Meiboom-Gill (CPMG) based assay were used to investigate protein-ligand binding affinity between PFI-90 and a truncated KDM3B catalytic domain.
CPMG (Carr-Purcell-Meiboom-Gill) Relaxation Editing Proton NMR is another drug-discovery NMR experiment that may be used in conjunction with WaterLOGSY to orthogonally validate the presence of a reversible binding interaction of mild to high affinity from a small molecule to a label-free target. In contrast to WaterLOGSY, all peaks are phased above the X-axis. Instead, this experiment filters out the proportion of peak height that is contributed from the quantity of small molecule bound to a target of high molecular weight (e.g., a protein). Once the attenuation of peak height is equivalent to a 20% reduction, the compound is said to bind, with an increasing ratio of bound to unbound small molecules manifesting in increasing signal attenuation.

[2] = test system: truncated KDM3B catalytic domain; experiment: WaterLOGSY NMR binding assay; details: 100 μM
Excerpt: as §1
In traditional proton NMR experiments, a series of peaks are generated that represent the structure of a solitary small molecule, whereas the WaterLOGSY experiment examines the behavior of a small molecule's peaks in the presence of a potential target. This is achieved by observing differences in interaction between a small molecule interacting with water co-occupying a binding cleft on a target as compared to water dispersed freely in solution. The experiment then depicts the ratio of bound to unbound small molecule by phasing proton NMR spectra on the X-axis in opposing directions depending on the magnitude of that ratio (i.e., increasing ratios above 1 will phase positively, decreasing ratios below 1 will phase negatively).

[3] = test system: PAX3-FOXO1 fusion transcription factor; experiment: RH4 ALK-Luc luciferase reporter assay (PAX3-FOXO1 super enhancer activity); assay type: cell-based, human; details: RH4 ALK-Luc reporter
Protocol: The screen was performed using two derivatives of RH4 FP-RMS cells: • (1) “ALK-Luc cells”—RH4 cells expressing a pGreenFire green fluorescent protein (GFP)-luciferase reporter (SEQ ID NO: 1) controlled by the PAX3-FOXO1-dependent intronic ALK super enhancer (for reporting on PAX3-FOXO1 activity) (FIGS. 1 and 2); and • (2) “CMV-Luc cells”—control RH4 cells in which the reporter is transcribed from a constitutively active cytomegalovirus (CMV) promoter. An Example of visualization via the ALK-Luc reporter is depicted in FIG. 3.
The cells were enriched for reporter expression levels and used for assay development. A high throughput screening assay was developed after optimization of cell seeding density, length of incubation of cells prior to and post treatment with test compounds, and effect of passaging among other factors. The screen was designed to identify compounds that suppressed PAX3-FOXO1 activity without disrupting viability (at a short time points) or general transcription. The assay simultaneously monitors the function of the PAX3-FOXO1 super enhancer (also referred to as “ALK super enhancer”), general transcriptional activity as well as cell viability.
The visual summary of the screening strategy is illustrated in FIG. 4. ALK-Luc cells were seeded in both white-walled and white-bottomed 384-well plates (Perkin Elmer, Cat #6007658) for luciferase assays and in clear 384-well plates (Perkin Elmer, Cat #6007688) for viability assay (XTT reduction) by transferring 27 μL of cell suspensions (seeding 3000 cells per well) into each well. The plates were then transferred into an incubator for 18-20 h. The CMV-Luc cells were similarly seeded into white plates and incubated.
A pure compound library of 62,643 compounds consisting of synthetic and natural products described previously (Grohar et al., J Natl. Cancer Inst., 103: 962-978 (2011)) was then used in a high throughput screening campaign to identify inhibitors of PAX3-FOXO1. Stock DMSO Solutions of these compounds were used to prepare 100 μM solutions in growth medium in 384-well plates also containing 16 wells each of a positive control (Actinomycin D, Sigma, Cat #A1410) and negative control (DMSO). Screening compounds along with the positive and negative controls were added to assay plates by transferring 3 μL of the prepared 100 μM dilutions using an automated liquid handler (Agilent, Bravo). Treated plates were incubated for 24 h. At the end of this period, treated plates were allowed to equilibrate to room temperature for 30 minutes. SteadyLite Plus luciferase assay reagent powder (PerkinElmer, Cat #6066759) was reconstituted in its buffer in parallel and was also allowed to equilibrate to room temperature.
After transferring 30 μL of the luciferase assay reagent using a liquid handler, plates were further incubated at room temperature for 10 minutes. Finally, luminescence measurements were carried out using a multi-label microplate reader (BMG, Pherastar FSX) set in luminescence mode. Cell viability was assessed by adding XTT reagent (10 μL per well) in clear plates containing treated ALK-Luc cells. XTT treated plates were read using a plate reader in absorbance mode at 450 nm (PerkinElmer, Envision) after further incubation for 1 hour to allow cells to metabolize XTT to a colored formazan product. Luminescence and XTT absorbance values were normalized to the average of the negative controls on each plate and were calculated as a percentage of these controls. Performance of the screening assay was routinely monitored via calculation of Z-factor (Zhang et al., J. Biomol. Screen., 4: 67-73 (1999)) with Z′ for all plates found to be >0.7.
RH4 ALK-Luc and RH4 CMV-Luc cells were seeded into separate white-walled and bottomed 384-well plates and were incubated and treated with screen hits and epigenome compounds. The highest test concentration of these compounds (10-fold) were prepared from DMSO stock solutions via dilution in medium. […]

| Compound | binding (CPMG) [1] | binding (WaterLOGSY) [2] | Avg Absorbance @ 1 μM, ALK-Luc [3] | Avg Absorbance @ 10 μM, ALK-Luc [3] |
| --- | --- | --- | --- | --- |
| O=C(O)CCC(=O)C(=O)O [Compound 2-OG, 2-oxoglutaric acid, reference compound] | did not bind; also recorded: does not bind | did not bind; also recorded: does not bind |  |  |
| O=C(NNC(=O)c1ccccn1)c1ccccc1 [PFI-65] |  |  | 103.5 | 109.2 |
| NNC(=O)c1cccc(C(=O)NN)n1 [PFI-66] |  |  | 91.6 | 91.3 |
| Cc1cccc(C(=O)NNC(=O)c2cccc(C)c2)c1 [PFI-67] |  |  | 94.6 | 112.8 |
| CC(=O)NNC(=O)c1ccccn1 [PFI-68] |  |  | 95.0 | 98.0 |
| CCC(=O)NNC(=O)c1ccccn1 [PFI-69] |  |  | 104.3 | 94.4 |
| O=CNNC(=O)c1ccccn1 [PFI-70] |  |  | 99.7 | 93.3 |
| NNC(=O)c1ccc(C(=O)NN)nc1 [PFI-71] |  |  | 100.1 | 108.6 |
| O=C(NNC(=O)c1cccc(C(=O)NNC(=O)c2ccc(Cl)c(Cl)c2)n1)c1ccc(Cl)c(Cl)c1 [PFI-72] |  |  |  | 91.1 |
| Cc1cccc(C(=O)NNC(=O)c2ccccc2)c1 [PFI-73] |  |  | 98.3 | 122.8 |
| CCCC(=O)NNC(=O)c1ccccn1 [PFI-74] |  |  | 102.4 | 94.7 |
| Cc1nc(C)c(C(=O)NNC(=O)c2ccccc2)cc1C(=O)NNC(=O)c1ccccc1 [PFI-75] |  |  | 100.2 | 110.5 |
| CC(=O)NNC(=O)c1cnccn1 [PFI-76] |  |  | 105.6 | 100.2 |
| O=CNNC(=O)c1cnccn1 [PFI-77] |  |  | 95.8 | 96.5 |
| Cc1nc(C)c(C(=O)NN)cc1C(=O)NN [PFI-78] |  |  | 100.3 | 95.3 |
| NNC(=O)c1ccc(C(=O)NN)o1 [PFI-79] |  |  | 97.0 | 97.6 |
| CC(=O)NNC(=O)c1ccc2ccccc2n1 [PFI-80] |  |  | 90.1 | 96.6 |
| CCC(CC)C(=O)NNC(=O)c1ccccn1 [PFI-81] |  |  | 97.7 | 89.1 |
| O=C(NNC(=O)c1ccccn1)c1ccccn1 [PFI-82] |  |  | 112.4 | 107.1 |
| O=C(Cc1ccc(Cl)cc1)NNC(=O)c1ccccn1 [PFI-83] |  |  | 97.8 | 32.2 |
| Cc1cc(C)cc(OCC(=O)NNC(=O)c2ccccn2)c1 [PFI-84] |  |  | 99.4 | 56.5 |
| CS(=O)(=O)NCCc1ccc(C(=O)NNC(=O)c2ccccn2)cc1 [PFI-85] |  |  | 99.7 | 100.2 |
| Cc1cc(C)cc(C(=O)NNC(=O)c2ccc(O)cc2)c1 [PFI-86] |  |  | 97.7 | 84.1 |
| COCc1cccc(C(=O)NNC(=O)c2ccccn2)c1 [PFI-87] |  |  | 115.5 | 120.4 |
| Cc1cccc(C(=O)NNC(=O)c2ccccc2)c1 [PFI-88] |  |  | 91.6 | 121.4 |
| CC(C)CC(=O)NNC(=O)c1ccco1 [PFI-89] |  |  | 95.1 | 92.5 |
